Test results from US11464750B2, “Anticancer agent and use thereof” (priority 2017, dated 2022).

How the values were obtained:
Type in all cases: cell-based, human
[1] = tested on: BALL-1 cells; test: MTT assay, BALL-1 cells; settings: 0.01, 0.05, 0.1, 0.5, and 1 μM, 48 hours
Description: BALL-1 cells of a cell line derived from […], TKG0210 cells of a human myeloid leukemia cell line, and TKG0377 cells of a human T cell acute leukemia cell line were seeded in 96-well plates at 2.5×10^4 cells/well/100 μL, and cultured for 48 hours in the presence of 3EZ,20Ac-ingenol at final concentrations of 0 (control), 0.5, 1, 5, and 10 μM. Subsequently, cell proliferation was examined by MTT assay using a Cell Proliferation Kit 1 (Roche Applied Science).
BALL-1 cells were exposed to 3EZ,20Ac-ingenol, 3EE,20Ac-ingenol, 20Ac-ingenol, and ingenol at concentrations of 0.01, 0.05, 0.1, 0.5, and 1 μM for 48 hours. Thereafter, cell proliferation was examined by MTT assay. Cells that were not exposed to the chemical were used as controls. The chemical formulas of 3EZ,20Ac-ingenol, 3EE,20Ac-ingenol, and 20Ac-ingenol are as described above. The chemical formula of ingenol is shown in the following Formula (7).

[2] = tested on: JeKo-1 cells; test: MTT assay, JeKo-1 cells; settings: 48 hours
Description: (§1) JeKo-1 cells of a cell line derived from a human mantle cell lymphoma were seeded in a 96-well plate at 1×10^4 cells/well/100 μL. In addition, Panc-1 cells of a cell line derived from a human pancreatic cancer were seeded in a 96-well plate at 3×10^3 cells/well/100 μL.
(§2) Subsequently, 3EZ,20Ac-ingenol at final concentrations of 0 (control), 0.1, 0.5, 1, 5, and 10 μM was added the wells of the respective cells, and culturing was performed for 48 hours. Subsequently, cell proliferation was examined by MTT assay using a Cell Proliferation Kit I (Roche Applied Science).
(§3) First, JeKo-1 cells were seeded in a 96-well plate at 1×10^4 cells/well/100 μL. Subsequently, irinotecan at a final concentration of 0 (control), 0.5, 1, 5, 10, 20, and 30 μM was added to the wells of the cells and culturing was performed for 48 hours. In addition, Panc-1 cells were seeded in a 96-well plate at 3×10^3 cells/well/100 μL. Subsequently, irinotecan at a final concentration of 0 (control), 0.5, 1, 5, 10, 20, 30, and 50 μM was added to the wells of the cells and culturing was performed for 48 hours. Subsequently, cell proliferation was examined by MTT assay using a Cell Proliferation Kit I (Roche Applied Science).

[3] = tested on: Panc-1 cells; test: MTT assay, Panc-1 cells; settings: irinotecan, 48 hours
Description: as §1, §2, §3

CCCCC/C=C/C=C/C(=O)O[C@H]1C(C)=C[C@]23C(=O)[C@@H](C=C(COC(C)=O)[C@@H](O)[C@]12O)[C@H]1[C@@H](C[C@H]3C)C1(C)C [3EE,20Ac-ingenol]
inhibition of proliferation of the BALL-1 cells [1]: a significant level of inhibition of proliferation

CC(=O)OCC1=C[C@@H]2C(=O)C3(C=C(C)[C@H](O)[C@@]3(O)[C@@H]1O)[C@H](C)C[C@@H]1[C@H]2C1(C)C [20Ac-ingenol]
inhibition of proliferation of the BALL-1 cells [1]: inhibition of proliferation of the BALL-1 cells was observed

CC1=C[C@]23C(=O)[C@@H](C=C(CO)[C@@H](O)[C@]2(O)[C@H]1O)[C@H]1[C@@H](C[C@H]3C)C1(C)C [ingenol, reference compound]
inhibition of proliferation of the BALL-1 cells [1]: little effect on proliferation

CCc1c2c(nc3ccc(OC(=O)N4CCC(N5CCCCC5)CC4)cc13)-c1cc3c(c(=O)n1C2)COC(=O)[C@]3(O)CC [irinotecan, reference compound]
proliferation inhibition of JeKo-1 cells ([2]; 1 to 20 μM of irinotecan): grown cells were almost eliminated | IC50 ([2]; Homo sapiens, JeKo-1, MTT assay, read-out: IC50 with respect to the JeKo-1 cells): 5 µM | resistance of Panc-1 cells [3]: showed resistance
